Patent publication US11219221B2 (FarmHannong Co., Ltd., priority 2017, dated 2022)

Assays:
Type in all cases: cell-based
Conditions in all cases: LB agar, 37° C., light, 16 to 20 hours
[1] = tested on: CyPPO17 (SEQ ID NO: 3) variant A166C in PPO-deficient E. coli BT3(ΔPPO)
Protocol: (§1) The mutated CyPPO gene obtained from the Example 2 was transformed to BT3 (ΔPPO) strain which is deficient of PPO activity and cultured in LB media with PPO-inhibiting herbicide, thereby examining whether growth of transformed BT3 was not inhibited.
(§2) BT3 competent cells were transformed with the pET303-CyPPO16 and pET303-CyPPO17 plasmids and those with a mutation(s) constructed in Example 2 respectively, and were cultured in LB agar media containing carbenicillin (Gold Biotechnology, Co., Ltd.).
(§3) Single colony of E. coli transformed with each CyPPO gene was cultured in 3 ml of LB broth containing carbenicillin overnight, and then was subcultured until absorbance (0D600) reached 0.5 to 1. Then, it was diluted with LB broth to OD600=0.5. Again, the diluted solution was serially diluted 4 times by a factor of one tenth.
(§4) The LB agar media (LB 25 g/l, Bacto agar 15 g/l) containing carbenicillin (100 μg/ml) and 0 to 4,000 μM of various herbicides dissolved in DMSO was prepared. Next, 10 μl of each diluted solution was dropped on the plate and cultured at 37° C. under light (Tables 7 and 9, FIGS. 2 to 6, and 18 to 22) or dark (Tables 8 and 10, FIGS. 7 to 17, and 23 to 33) for 16 to 20 hours. Then, extent of tolerance was evaluated.
(§5) The extent of herbicide tolerance of the mutated genes was evaluated by comparing that of mutated genes with that of wild type. The relative tolerance was represented with “+” as a factor of 10 times.
(§6) In Tables 7 to 10, tolerance level was presented as of tolerance of wild type and of variants equivalent to that of wild type, and was done as ‘+’ per each 10 fold resistance until ‘+++++’ as maximal resistance.

[2] = tested on: CyPPO17 (SEQ ID NO: 3) variant A166L in PPO-deficient E. coli BT3(ΔPPO)
Protocol: as §1, §2, §3, §4, §5, §6

[3] = tested on: CyPPO17 (SEQ ID NO: 3) variant F359L in PPO-deficient E. coli BT3(ΔPPO)
Protocol: as §1, §2, §3, §4, §5, §6

[4] = tested on: CyPPO17 (SEQ ID NO: 3) variant F359M in PPO-deficient E. coli BT3(ΔPPO)
Protocol: as §1, §2, §3, §4, §5, §6

[5] = tested on: CyPPO16 (SEQ ID NO: 1) variant F360M in PPO-deficient E. coli BT3(ΔPPO)
Protocol: as §1, §2, §3, §4, §5, §6

[6] = tested on: CyPPO16 (SEQ ID NO: 1) variant A162L in PPO-deficient E. coli BT3(ΔPPO)
Protocol: as §1, §2, §3, §4, §5, §6

[7] = tested on: CyPPO17 (SEQ ID NO: 3) variant F359C in PPO-deficient E. coli BT3(ΔPPO)
Protocol: as §1, §2, §3, §4, §5, §6

[8] = tested on: CyPPO16 (SEQ ID NO: 1) variant F360I in PPO-deficient E. coli BT3(ΔPPO)
Protocol: as §1, §2, §3, §4, §5, §6

[9] = tested on: CyPPO17 (SEQ ID NO: 3) variant V304M in PPO-deficient E. coli BT3(ΔPPO)
Protocol: as §1, §2, §3, §4, §5, §6

[10] = tested on: CyPPO16 (SEQ ID NO: 1) variant F360L in PPO-deficient E. coli BT3(ΔPPO)
Protocol: as §1, §2, §3, §4, §5, §6

[11] = tested on: CyPPO16 (SEQ ID NO: 1) variant F360C in PPO-deficient E. coli BT3(ΔPPO)
Protocol: as §1, §2, §3, §4, §5, §6

[12] = tested on: CyPPO16 (SEQ ID NO: 1) variant A162C in PPO-deficient E. coli BT3(ΔPPO)
Protocol: as §1, §2, §3, §4, §5, §6

[13] = tested on: CyPPO16 (SEQ ID NO: 1) variant F360V in PPO-deficient E. coli BT3(ΔPPO)
Protocol: as §1, §2, §3, §4, §5, §6

[14] = tested on: CyPPO16 (SEQ ID NO: 1) variant V305M in PPO-deficient E. coli BT3(ΔPPO)
Protocol: as §1, §2, §3, §4, §5, §6

[15] = tested on: CyPPO17 (SEQ ID NO: 3) variant F359I in PPO-deficient E. coli BT3(ΔPPO)
Protocol: as §1, §2, §3, §4, §5, §6

[16] = tested on: CyPPO17 wild type (SEQ ID NO: 3) in PPO-deficient E. coli BT3(ΔPPO)
Protocol: as §1, §2, §3, §4
(§7) The extent of herbicide tolerance of the mutated genes was evaluated by comparing that of mutated genes with that of wild type. The relative tolerance was represented with “+” as a factor of 10 times. Evaluation result was listed in Tables 7 to10 and FIGS. 2 to 33:
(§8) In Tables 7 to 10, tolerance level was presented as of tolerance of wild type and of variants equivalent to that of wild type, and was done as ‘+’ per each 10 fold resistance until ‘+++++’ as maximal resistance. (Tolerance level was evaluated by relative growth level of variants to that of wild type in the media containing highest concentration of herbicide; ‘+’=1-9 fold higher tolerance, ‘++’=10-99 fold higher tolerance, ‘+++’=100-999 fold higher tolerance, ‘++++’=1,000-9,999 fold higher tolerance, ‘+++++’=more than 10,000 fold higher tolerance)

[17] = tested on: CyPPO16 wild type (SEQ ID NO: 1) in PPO-deficient E. coli BT3(ΔPPO)
Protocol: as §1, §2, §3, §4, §7, §8

| Compound | Herbicide tolerance (relative to wild type) [1] | Herbicide tolerance (relative to wild type) [2] | Herbicide tolerance (relative to wild type) [3] | Herbicide tolerance (relative to wild type) [4] | Herbicide tolerance (relative to wild type) [5] | Herbicide tolerance (relative to wild type) [6] | Herbicide tolerance (relative to wild type) [7] | Herbicide tolerance (relative to wild type) [8] | Herbicide tolerance (relative to wild type) [9] | Herbicide tolerance (relative to wild type) [10] | Herbicide tolerance (relative to wild type) [11] | Herbicide tolerance (relative to wild type) [12] | Herbicide tolerance (relative to wild type) [13] | Herbicide tolerance (relative to wild type) [14] | Herbicide tolerance (relative to wild type) [15] | Herbicide tolerance (relative to wild type) [16] | Herbicide tolerance (relative to wild type) [17] |
| --- | --- | --- | --- | --- | --- | --- | --- | --- | --- | --- | --- | --- | --- | --- | --- | --- | --- |
| CS(=O)(=O)NC(=O)c1cc(Oc2ccc(C(F)(F)F)cc2Cl)ccc1[N+](=O)[O-] [fomesafen] | + (1-9 fold higher tolerance) | ++ (10-99 fold higher tolerance) | + (1-9 fold higher tolerance) | ++ (10-99 fold higher tolerance) | +++ (100-999 fold higher tolerance) | ++ (10-99 fold higher tolerance) | + (1-9 fold higher tolerance) | + (1-9 fold higher tolerance) | ++ (10-99 fold higher tolerance) | +++ (100-999 fold higher tolerance) | ++ (10-99 fold higher tolerance) | ++ (10-99 fold higher tolerance) | + (1-9 fold higher tolerance) | ++ (10-99 fold higher tolerance) | + (1-9 fold higher tolerance) | − | − |
| O=C(O)c1cc(Oc2ccc(C(F)(F)F)cc2Cl)ccc1[N+](=O)[O-] [acifluorfen] | +++ (100-999 fold higher tolerance) | +++ (100-999 fold higher tolerance) | + (1-9 fold higher tolerance) | +++ (100-999 fold higher tolerance) | + (1-9 fold higher tolerance) | ++ (10-99 fold higher tolerance) | + (1-9 fold higher tolerance) | + (1-9 fold higher tolerance) | +++ (100-999 fold higher tolerance) | + (1-9 fold higher tolerance) | ++ (10-99 fold higher tolerance) | ++ (10-99 fold higher tolerance) | + (1-9 fold higher tolerance) | ++ (10-99 fold higher tolerance) | + (1-9 fold higher tolerance) | − | − |
| CCOC(=O)COc1cc(-c2nn(C)c(OC(F)F)c2Cl)c(F)cc1Cl [pyraflufen-ethyl] | ++ (10-99 fold higher tolerance) | ++ (10-99 fold higher tolerance) | ++ (10-99 fold higher tolerance) | ++ (10-99 fold higher tolerance) | ++ (10-99 fold higher tolerance) | +++ (100-999 fold higher tolerance) | + (1-9 fold higher tolerance) | ++ (10-99 fold higher tolerance) | + (1-9 fold higher tolerance) | ++ (10-99 fold higher tolerance) | +++ (100-999 fold higher tolerance) | +++ (100-999 fold higher tolerance) | ++ (10-99 fold higher tolerance) | +++ (100-999 fold higher tolerance) | ++ (10-99 fold higher tolerance) | − | − |
| CC(C)=C1OC(=O)N(c2cc(OC3CCCC3)c(Cl)cc2F)C1=O [pentoxazone] | + (1-9 fold higher tolerance) | ++ (10-99 fold higher tolerance) | + (1-9 fold higher tolerance) | ++ (10-99 fold higher tolerance) | + (1-9 fold higher tolerance) | ++ (10-99 fold higher tolerance) | + (1-9 fold higher tolerance) | + (1-9 fold higher tolerance) | + (1-9 fold higher tolerance) | + (1-9 fold higher tolerance) | ++ (10-99 fold higher tolerance) | ++ (10-99 fold higher tolerance) | + (1-9 fold higher tolerance) | + (1-9 fold higher tolerance) | ++ (10-99 fold higher tolerance) | − | − |
